Values of other authors in patent US20040047946A1, “Methods and formulations useful for lowering the cholesterol content of egg yolk” (Kapac, LLC, priority 2002, published 2004).

Tests used:
[1] = system: hens; conditions: hens fed 0.0265% lovastatin for 35 days
[2] = system: chickens; conditions: chickens fed 2% and 4% sitosterol emulsified with carboxymethyl cellulose

CC[C@H](C)C(=O)O[C@H]1C[C@@H](C)C=C2C=C[C@H](C)[C@H](CC[C@@H]3C[C@@H](O)CC(=O)O3)[C@H]21 [lovastatin]
less cholesterol in eggs than those from hens that received only a corn-soybean diet [1]: 15%

CC[C@H](CC[C@@H](C)[C@H]1CC[C@H]2[C@@H]3CC=C4C[C@@H](O)CC[C@]4(C)[C@H]3CC[C@]12C)C(C)C [sitosterol]
cholesterol and total sterol content of the egg [2]: significant reduction | level of egg yolk sitosterol [2]: increased
